Source: US10899793B2, “Melanocortin ligands and methods of use thereof” (priority 2016, dated 2021)
Square brackets hold non-standard residues; d marks the D form. Peptide text beside a SMILES is read from it. Bip = N[C@@H](Cc1ccc(-c2ccccc2)cc1)C(=O)O; dPhe(4-I) = N[C@H](Cc1ccc(I)cc1)C(=O)O; 2Nal = N[C@@H](Cc1ccc2ccccc2c1)C(=O)O; d2Nal = N[C@H](Cc1ccc2ccccc2c1)C(=O)O; Bta = N[C@@H](Cc1csc2ccccc12)C(=O)O; Tic = O=C(O)[C@@H]1Cc2ccccc2CN1

How the values were obtained:
[1] = target: T1, mMC3R (Mus musculus, UniProt P33033); settings: Table 1; Schild analysis, pA2 = -Log(Ki); Full Agonist = full dose-response, No Activity = no shift in EC50
T1 sequence (P33033 whole entry): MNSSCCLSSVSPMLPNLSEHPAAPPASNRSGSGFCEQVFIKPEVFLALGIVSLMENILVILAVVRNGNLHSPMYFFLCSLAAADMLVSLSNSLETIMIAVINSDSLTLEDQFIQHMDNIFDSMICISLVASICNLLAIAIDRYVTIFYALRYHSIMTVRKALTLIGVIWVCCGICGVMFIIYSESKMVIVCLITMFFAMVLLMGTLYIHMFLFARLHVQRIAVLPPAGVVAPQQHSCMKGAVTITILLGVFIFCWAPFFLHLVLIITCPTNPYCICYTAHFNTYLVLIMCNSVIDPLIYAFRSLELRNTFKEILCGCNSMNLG

[2] = target: T2, mMC4R (Mus musculus, UniProt P56450); settings: for mMC4R Antagonist pA2 ± SEM: Table 1, Schild analysis, pA2 = -Log(Ki)
T2 sequence (P56450 whole entry): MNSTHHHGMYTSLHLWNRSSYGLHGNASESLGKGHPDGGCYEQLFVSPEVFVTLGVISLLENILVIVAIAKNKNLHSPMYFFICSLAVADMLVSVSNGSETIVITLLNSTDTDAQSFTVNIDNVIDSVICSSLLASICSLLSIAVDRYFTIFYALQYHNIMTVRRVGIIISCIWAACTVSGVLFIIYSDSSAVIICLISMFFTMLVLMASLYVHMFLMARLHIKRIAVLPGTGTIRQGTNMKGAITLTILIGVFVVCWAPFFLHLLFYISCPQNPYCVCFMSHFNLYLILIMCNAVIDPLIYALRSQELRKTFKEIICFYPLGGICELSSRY

[3] = target: T2, mMC4R; experiment: AlphaScreen cAMP agonist assay at mMC4R; settings: read-out: mMC4R Agonist, percent of the NDP-MSH maximal positive control
[4] = target: T1, mMC3R; experiment: AlphaScreen cAMP agonist assay at mMC3R; settings: Table 1; @ 100 μM
[5] = target: mMC5R (Mus musculus, UniProt P41149); experiment: AlphaScreen cAMP agonist assay at mMC5R; settings: read-out: percent of the NDP-MSH maximal positive control, Table 2
Chain of mMC5R (P41149 whole entry): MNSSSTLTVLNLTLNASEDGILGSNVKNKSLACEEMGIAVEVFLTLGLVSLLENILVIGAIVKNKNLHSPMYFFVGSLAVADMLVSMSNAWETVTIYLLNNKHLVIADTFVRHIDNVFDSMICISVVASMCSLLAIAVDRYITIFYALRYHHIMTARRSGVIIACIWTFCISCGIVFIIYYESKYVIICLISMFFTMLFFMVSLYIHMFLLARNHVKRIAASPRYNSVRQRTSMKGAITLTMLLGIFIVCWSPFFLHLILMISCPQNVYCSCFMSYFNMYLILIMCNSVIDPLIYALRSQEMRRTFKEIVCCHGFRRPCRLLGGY

Row | SMILES | mMC3R Antagonist pA2 ± SEM [1] | mMC4R Antagonist pA2 ± SEM [2] | activation at 100 µM [3] [%] | mMC3R Agonist, percent of the NDP-MSH maximal positive control [4] [% @ 100 μM] | activation at 100 µM [5] [%] | antagonist pA2 at the mMC4R [2]
1 | CC(=O)N[C@@H](Cc1ccc2ccccc2c1)C(=O)N[C@@H](CCCNC(=N)N)C(=O)N[C@H](Cc1ccc(I)cc1)C(=O)N[C@@H](Cc1ccc(-c2ccccc2)cc1)C(N)=O [SKY4-48-8, Ac-Nal(2′)-Arg-(pI)DPhe-Bip-NH2] (Ac-[2Nal]R[dPhe(4-I)][Bip]-NH2) | Full Agonist | Full Agonist |  |  |  | 
2 | CC(=O)N[C@@H](Cc1ccc(-c2ccccc2)cc1)C(=O)N[C@@H](CCCNC(=N)N)C(=O)N[C@H](Cc1ccc(I)cc1)C(=O)N[C@@H](Cc1csc2ccccc12)C(N)=O [SKY4-48-12, Ac-Bip-Arg-(pI)DPhe-3Bal-NH2] (Ac-[Bip]R[dPhe(4-I)][Bta]-NH2) | Full Agonist | No Activity |  |  |  | 
3 | CC(=O)N[C@@H](Cc1csc2ccccc12)C(=O)N[C@@H](CCCNC(=N)N)C(=O)N[C@H](Cc1ccc(I)cc1)C(=O)N[C@@H](Cc1csc2ccccc12)C(N)=O [SKY4-48-13, Ac-3Bal-Arg-(pI)DPhe-3Bal-NH2] (Ac-[Bta]R[dPhe(4-I)][Bta]-NH2) | Full Agonist |  |  |  |  | 
4 | CC(=O)N[C@@H](Cc1ccc2ccccc2c1)C(=O)N[C@@H](CCCNC(=N)N)C(=O)N[C@H](Cc1ccc(I)cc1)C(=O)N[C@@H](Cc1csc2ccccc12)C(N)=O [SKY4-48-16, Ac-Nal(2′)-Arg-(pI)DPhe-3Bal-NH2] (Ac-[2Nal]R[dPhe(4-I)][Bta]-NH2) | Full Agonist |  |  |  |  | 
5 | CC(=O)N[C@H](Cc1ccc2ccccc2c1)C(=O)N[C@@H](CCCNC(=N)N)C(=O)N[C@H](Cc1ccc(I)cc1)C(=O)N[C@@H](Cc1csc2ccccc12)C(N)=O [SKY4-48-17, Ac-DNal(2′)-Arg-(pI)DPhe-3Bal-NH2] (Ac-[d2Nal]R[dPhe(4-I)][Bta]-NH2) | Full Agonist |  | 45 |  |  | 
6 | CC(=O)N[C@@H](Cc1ccc(-c2ccccc2)cc1)C(=O)N[C@@H](CCCNC(=N)N)C(=O)N[C@H](Cc1ccc(I)cc1)C(=O)N1Cc2ccccc2C[C@H]1C(N)=O [SKY4-48-20, Ac-Bip-Arg-(pI)DPhe-Tic-NH2] (Ac-[Bip]R[dPhe(4-I)][Tic]-NH2) | Full Agonist |  |  |  |  | 
7 | CC(=O)N[C@@H](Cc1csc2ccccc12)C(=O)N[C@@H](CCCNC(=N)N)C(=O)N[C@H](Cc1ccc(I)cc1)C(=O)N1Cc2ccccc2C[C@H]1C(N)=O [SKY4-48-21, Ac-3Bal-Arg-(pI)DPhe-Tic-NH2] (Ac-[Bta]R[dPhe(4-I)][Tic]-NH2) | Full Agonist |  | 37 |  |  | 
8 | CC(=O)N[C@@H](Cc1ccc2ccccc2c1)C(=O)N[C@@H](CCCNC(=N)N)C(=O)N[C@H](Cc1ccc(I)cc1)C(=O)N1Cc2ccccc2C[C@H]1C(N)=O [SKY4-48-24, Ac-Nal(2′)-Arg-(pI)DPhe-Tic-NH2] (Ac-[2Nal]R[dPhe(4-I)][Tic]-NH2) | Full Agonist |  | 33 |  |  | 
9 | CC(=O)N[C@@H](Cc1ccc(-c2ccccc2)cc1)C(=O)N[C@@H](CCCNC(=N)N)C(=O)N[C@H](Cc1ccc(I)cc1)C(=O)N[C@@H](Cc1ccccc1)C(N)=O [SKY4-48-28, Ac-Bip-Arg-(pI)DPhe-Phe-NH2] (Ac-[Bip]R[dPhe(4-I)]F-NH2) | No Activity |  |  | 77 | 69 | 
10 | CC(=O)N1Cc2ccccc2C[C@H]1C(=O)N[C@@H](CCCNC(=N)N)C(=O)N[C@H](Cc1ccc(I)cc1)C(=O)N[C@@H](Cc1ccccc1)C(N)=O [SKY4-48-30, Ac-Tic-Arg-(pI)DPhe-Phe-NH2] (Ac-[Tic]R[dPhe(4-I)]F-NH2) | No Activity | No Activity |  |  | 21 | 
11 | CC(=O)N[C@@H](Cc1ccccc1)C(=O)N[C@@H](CCCNC(=N)N)C(=O)N[C@H](Cc1ccc(I)cc1)C(=O)N[C@@H](Cc1ccccc1)C(N)=O [SKY4-48-31, Ac-Phe-Arg-(pI)DPhe-Phe-NH2] (Ac-FR[dPhe(4-I)]F-NH2) | No Activity | No Activity |  | 50 | 52 | 
12 | CC(=O)N[C@@H](Cc1ccc2ccccc2c1)C(=O)N[C@@H](CCCNC(=N)N)C(=O)N[C@H](Cc1ccc(I)cc1)C(=O)N[C@@H](Cc1ccccc1)C(N)=O [SKY4-48-32, Ac-Nal(2′)-Arg-(pI)DPhe-Phe-NH2] (Ac-[2Nal]R[dPhe(4-I)]F-NH2) | No Activity | No Activity |  | 42 | 49 | 
13 | CC(=O)N[C@H](Cc1ccc2ccccc2c1)C(=O)N[C@@H](CCCNC(=N)N)C(=O)N[C@H](Cc1ccc(I)cc1)C(=O)N[C@@H](Cc1ccccc1)C(N)=O [SKY4-48-33, Ac-DNal(2′)-Arg-(pI)DPhe-Phe-NH2] (Ac-[d2Nal]R[dPhe(4-I)]F-NH2) |  |  |  |  |  | 6.9
14 | CC(=O)N[C@@H](CCCNC(=N)N)C(=O)N[C@@H](CCCNC(=N)N)C(=O)N[C@H](Cc1ccc(I)cc1)C(=O)N[C@@H](Cc1ccc2ccccc2c1)C(N)=O [SKY4-48-34, Ac-Arg-Arg-(pI)DPhe-Nal(2′)-NH2] |  |  |  | 51 |  | 
15 | CC(=O)N[C@@H](Cc1c[nH]cn1)C(=O)N[C@@H](CCCNC(=N)N)C(=O)N[C@H](Cc1ccc(I)cc1)C(=O)N[C@@H](Cc1ccc2ccccc2c1)C(N)=O [SKY4-48-35, Ac-His-Arg-(pI)DPhe-Nal(2′)-NH2] (Ac-HR[dPhe(4-I)][2Nal]-NH2) |  |  | 35 | 57 |  | 
16 | CC(=O)N[C@@H](Cc1csc2ccccc12)C(=O)N[C@@H](CCCNC(=N)N)C(=O)N[C@H](Cc1ccc(I)cc1)C(=O)N[C@@H](Cc1ccc2ccccc2c1)C(N)=O [SKY4-48-37, Ac-3Bal-Arg-(pI)DPhe-Nal(2′)-NH2] (Ac-[Bta]R[dPhe(4-I)][2Nal]-NH2) | No Activity | No Activity |  |  | 50 | 
17 | CC(=O)N[C@@H](Cc1ccccc1)C(=O)N[C@@H](CCCNC(=N)N)C(=O)N[C@H](Cc1ccc(I)cc1)C(=O)N[C@@H](Cc1ccc2ccccc2c1)C(N)=O [SKY4-48-39, Ac-Phe-Arg-(pI)DPhe-Nal(2′)-NH2] (Ac-FR[dPhe(4-I)][2Nal]-NH2) | No Activity |  |  | 44 | 61 | 
18 | CC(=O)N[C@@H](Cc1ccc2ccccc2c1)C(=O)N[C@@H](CCCNC(=N)N)C(=O)N[C@H](Cc1ccc(I)cc1)C(=O)N[C@@H](Cc1ccc2ccccc2c1)C(N)=O [SKY4-48-40, Ac-Nal(2′)-Arg-(pI)DPhe-Nal(2′)-NH2] (Ac-[2Nal]R[dPhe(4-I)][2Nal]-NH2) | No Activity | No Activity |  | 39 | 45 | 
19 | CC(=O)N[C@@H](Cc1ccc(-c2ccccc2)cc1)C(=O)N[C@@H](CCCNC(=N)N)C(=O)N[C@H](Cc1ccc(I)cc1)C(=O)N[C@H](Cc1ccc2ccccc2c1)C(N)=O [SKY4-48-44, Ac-Bip-Arg-(pI)DPhe-DNal(2′)-NH2] (Ac-[Bip]R[dPhe(4-I)][d2Nal]-NH2) | No Activity | No Activity |  | 32 | 55 | 
20 | CC(=O)N[C@@H](Cc1ccccc1)C(=O)N[C@@H](CCCNC(=N)N)C(=O)N[C@H](Cc1ccc(I)cc1)C(=O)N[C@H](Cc1ccc2ccccc2c1)C(N)=O [SKY4-48-47, Ac-Phe-Arg-(pI)DPhe-DNal(2′)-NH2] (Ac-FR[dPhe(4-I)][d2Nal]-NH2) | No Activity |  |  | 22 | 39 | 
21 | CC(=O)N[C@@H](Cc1c[nH]cn1)C(=O)N[C@@H](CCCNC(=N)N)C(=O)N[C@H](Cc1ccc(I)cc1)C(=O)N[C@@H](Cc1ccccc1)C(N)=O [SKY5-146-3, Ac-His-Arg-(pI)DPhe-Phe-NH2] (Ac-HR[dPhe(4-I)]F-NH2) | Full Agonist |  |  |  |  | 
22 | CC(=O)N[C@@H](Cc1csc2ccccc12)C(=O)N[C@@H](CCCNC(=N)N)C(=O)N[C@H](Cc1ccc(I)cc1)C(=O)N[C@@H](Cc1ccccc1)C(N)=O [SKY5-146-4, Ac-3Bal-Arg-(pI)DPhe-Phe-NH2] (Ac-[Bta]R[dPhe(4-I)]F-NH2) | No Activity | No Activity |  | 37 | 35 | 
23 | CC(=O)N1Cc2ccccc2C[C@H]1C(=O)N[C@@H](CCCNC(=N)N)C(=O)N[C@H](Cc1ccc(I)cc1)C(=O)N1Cc2ccccc2C[C@H]1C(N)=O [SKY6-24-1, Ac-Tic-Arg-(pI)DPhe-Tic-NH2] (Ac-[Tic]R[dPhe(4-I)][Tic]-NH2) | Full Agonist |  | 36 |  |  | 
